Experimental data published in BigSolDB 2.1.

Cc1ccccc1S(N)(=O)=O
solubility (mole fraction) (in acetone, 273.15 K): 0.0728
solubility (mole fraction) (in acetone, 279.15 K): 0.0787
solubility (mole fraction) (in acetone, 283.75 K): 0.0844
solubility (mole fraction) (in acetone, 289.15 K): 0.091
solubility (mole fraction) (in acetone, 298.95 K): 0.105
solubility (mole fraction) (in acetone, 303.25 K): 0.113
solubility (mole fraction) (in acetone, 308.65 K): 0.124
solubility (mole fraction) (in acetone, 313.15 K): 0.134
solubility (mole fraction) (in acetone, 318.15 K): 0.146
solubility (mole fraction) (in acetone, 323.15 K): 0.158
solubility (mole fraction) (in acetonitrile, 273.15 K): 0.0167
solubility (mole fraction) (in acetonitrile, 279.15 K): 0.0196
solubility (mole fraction) (in acetonitrile, 283.95 K): 0.022
solubility (mole fraction) (in acetonitrile, 293.35 K): 0.0297
solubility (mole fraction) (in acetonitrile, 298.95 K): 0.0347
solubility (mole fraction) (in acetonitrile, 303.25 K): 0.0401
solubility (mole fraction) (in acetonitrile, 308.95 K): 0.0476
solubility (mole fraction) (in acetonitrile, 313.15 K): 0.0533
solubility (mole fraction) (in acetonitrile, 319.15 K): 0.0634
solubility (mole fraction) (in acetonitrile, 323.85 K): 0.0723
solubility (mole fraction) (in cyclohexanone, 273.15 K): 0.0803
solubility (mole fraction) (in cyclohexanone, 279.15 K): 0.0861
solubility (mole fraction) (in cyclohexanone, 283.95 K): 0.0927
solubility (mole fraction) (in cyclohexanone, 289.15 K): 0.0992
solubility (mole fraction) (in cyclohexanone, 293.35 K): 0.105
solubility (mole fraction) (in cyclohexanone, 298.95 K): 0.114
solubility (mole fraction) (in cyclohexanone, 303.25 K): 0.122
solubility (mole fraction) (in cyclohexanone, 308.95 K): 0.133
solubility (mole fraction) (in cyclohexanone, 313.15 K): 0.143
solubility (mole fraction) (in cyclohexanone, 319.15 K): 0.156
solubility (mole fraction) (in cyclohexanone, 323.85 K): 0.168
solubility (mole fraction) (in cyclopentanone, 273.15 K): 0.098
solubility (mole fraction) (in cyclopentanone, 279.15 K): 0.104
solubility (mole fraction) (in cyclopentanone, 283.95 K): 0.111
solubility (mole fraction) (in cyclopentanone, 289.15 K): 0.118
solubility (mole fraction) (in cyclopentanone, 293.35 K): 0.124
solubility (mole fraction) (in cyclopentanone, 298.95 K): 0.133
solubility (mole fraction) (in cyclopentanone, 303.25 K): 0.142
solubility (mole fraction) (in cyclopentanone, 308.95 K): 0.152
solubility (mole fraction) (in cyclopentanone, 313.15 K): 0.16
solubility (mole fraction) (in cyclopentanone, 319.15 K): 0.175
solubility (mole fraction) (in cyclopentanone, 323.85 K): 0.187
solubility (mole fraction) (in dichloromethane, 273.15 K): 0.00161
solubility (mole fraction) (in dichloromethane, 279.15 K): 0.00199
solubility (mole fraction) (in dichloromethane, 283.95 K): 0.00233
solubility (mole fraction) (in dichloromethane, 289.15 K): 0.00304
solubility (mole fraction) (in dichloromethane, 293.35 K): 0.00365
solubility (mole fraction) (in dichloromethane, 298.95 K): 0.00463
solubility (mole fraction) (in dichloromethane, 303.25 K): 0.00547
solubility (mole fraction) (in dichloromethane, 308.95 K): 0.00697
solubility (mole fraction) (in dichloromethane, 312.15 K): 0.00785
solubility (mole fraction) (in ethanol, 273.15 K): 0.00764
solubility (mole fraction) (in ethanol, 279.15 K): 0.00971
solubility (mole fraction) (in ethanol, 283.75 K): 0.0116
solubility (mole fraction) (in ethanol, 289.15 K): 0.0147
solubility (mole fraction) (in ethanol, 298.95 K): 0.0196
solubility (mole fraction) (in ethanol, 303.25 K): 0.0226
solubility (mole fraction) (in ethanol, 308.65 K): 0.0275
solubility (mole fraction) (in ethanol, 313.15 K): 0.0315
solubility (mole fraction) (in ethanol, 318.15 K): 0.0374
solubility (mole fraction) (in ethanol, 323.15 K): 0.0439
solubility (mole fraction) (in ethyl acetate, 273.15 K): 0.0221
solubility (mole fraction) (in ethyl acetate, 279.15 K): 0.0248
solubility (mole fraction) (in ethyl acetate, 283.75 K): 0.0278
solubility (mole fraction) (in ethyl acetate, 289.15 K): 0.0307
solubility (mole fraction) (in ethyl acetate, 298.95 K): 0.0377
solubility (mole fraction) (in ethyl acetate, 303.25 K): 0.0416
solubility (mole fraction) (in ethyl acetate, 308.65 K): 0.0471
solubility (mole fraction) (in ethyl acetate, 313.15 K): 0.0518
solubility (mole fraction) (in ethyl acetate, 318.15 K): 0.0578
solubility (mole fraction) (in ethyl acetate, 323.15 K): 0.0643
solubility (mole fraction) (in ethyl formate, 273.15 K): 0.013
solubility (mole fraction) (in ethyl formate, 279.15 K): 0.0146
solubility (mole fraction) (in ethyl formate, 283.95 K): 0.0165
solubility (mole fraction) (in ethyl formate, 289.15 K): 0.0185
solubility (mole fraction) (in ethyl formate, 293.35 K): 0.0207
solubility (mole fraction) (in ethyl formate, 298.95 K): 0.0239
solubility (mole fraction) (in ethyl formate, 303.25 K): 0.0273
solubility (mole fraction) (in ethyl formate, 308.95 K): 0.0316
solubility (mole fraction) (in ethyl formate, 313.15 K): 0.0354
solubility (mole fraction) (in ethyl formate, 319.15 K): 0.0408
solubility (mole fraction) (in ethyl formate, 323.85 K): 0.0461
solubility (mole fraction) (in isobutanol, 273.15 K): 0.00205
solubility (mole fraction) (in isobutanol, 279.15 K): 0.00284
solubility (mole fraction) (in isobutanol, 283.75 K): 0.00363
solubility (mole fraction) (in isobutanol, 289.15 K): 0.00476
solubility (mole fraction) (in isobutanol, 298.95 K): 0.00768
solubility (mole fraction) (in isobutanol, 303.25 K): 0.00934
solubility (mole fraction) (in isobutanol, 308.65 K): 0.012
solubility (mole fraction) (in isobutanol, 313.15 K): 0.0144
solubility (mole fraction) (in isobutanol, 318.15 K): 0.0178
solubility (mole fraction) (in isobutanol, 323.15 K): 0.0215
solubility (mole fraction) (in isopentanol, 273.15 K): 0.00248
solubility (mole fraction) (in isopentanol, 279.15 K): 0.00333
solubility (mole fraction) (in isopentanol, 283.95 K): 0.00419
solubility (mole fraction) (in isopentanol, 289.15 K): 0.00534
solubility (mole fraction) (in isopentanol, 293.35 K): 0.00642
solubility (mole fraction) (in isopentanol, 298.95 K): 0.00805
solubility (mole fraction) (in isopentanol, 303.25 K): 0.00978
solubility (mole fraction) (in isopentanol, 308.95 K): 0.0125
solubility (mole fraction) (in isopentanol, 313.15 K): 0.0144
solubility (mole fraction) (in isopentanol, 319.15 K): 0.0183
solubility (mole fraction) (in isopentanol, 323.85 K): 0.0214
solubility (mole fraction) (in isopropanol, 273.15 K): 0.00343
solubility (mole fraction) (in isopropanol, 279.15 K): 0.00464
solubility (mole fraction) (in isopropanol, 283.75 K): 0.00581
solubility (mole fraction) (in isopropanol, 289.15 K): 0.00756
solubility (mole fraction) (in isopropanol, 298.95 K): 0.0115
solubility (mole fraction) (in isopropanol, 303.25 K): 0.0137
solubility (mole fraction) (in isopropanol, 308.65 K): 0.0175
solubility (mole fraction) (in isopropanol, 313.15 K): 0.0208
solubility (mole fraction) (in isopropanol, 318.15 K): 0.0252
solubility (mole fraction) (in isopropanol, 323.15 K): 0.0304
solubility (mole fraction) (in methanol, 273.15 K): 0.0128
solubility (mole fraction) (in methanol, 279.15 K): 0.016
solubility (mole fraction) (in methanol, 283.75 K): 0.0189
solubility (mole fraction) (in methanol, 289.15 K): 0.0233
solubility (mole fraction) (in methanol, 298.95 K): 0.0311
solubility (mole fraction) (in methanol, 303.25 K): 0.0355
solubility (mole fraction) (in methanol, 308.65 K): 0.0422
solubility (mole fraction) (in methanol, 313.15 K): 0.0489
solubility (mole fraction) (in methanol, 318.15 K): 0.0567
solubility (mole fraction) (in methanol, 323.15 K): 0.0658
solubility (mole fraction) (in methyl acetate, 273.15 K): 0.027
solubility (mole fraction) (in methyl acetate, 279.15 K): 0.0303
solubility (mole fraction) (in methyl acetate, 283.95 K): 0.0337
solubility (mole fraction) (in methyl acetate, 289.15 K): 0.0374
solubility (mole fraction) (in methyl acetate, 293.35 K): 0.0405
solubility (mole fraction) (in methyl acetate, 298.95 K): 0.046
solubility (mole fraction) (in methyl acetate, 303.25 K): 0.0513
solubility (mole fraction) (in methyl acetate, 308.95 K): 0.058
solubility (mole fraction) (in methyl acetate, 313.15 K): 0.0637
solubility (mole fraction) (in methyl acetate, 319.15 K): 0.0731
solubility (mole fraction) (in methyl acetate, 323.85 K): 0.0809
solubility (mole fraction) (in n-butanol, 273.15 K): 0.00341
solubility (mole fraction) (in n-butanol, 279.15 K): 0.00451
solubility (mole fraction) (in n-butanol, 283.75 K): 0.00556
solubility (mole fraction) (in n-butanol, 289.15 K): 0.00731
solubility (mole fraction) (in n-butanol, 298.95 K): 0.0104
solubility (mole fraction) (in n-butanol, 303.25 K): 0.0123
solubility (mole fraction) (in n-butanol, 308.65 K): 0.0154
solubility (mole fraction) (in n-butanol, 313.15 K): 0.0181
solubility (mole fraction) (in n-butanol, 318.15 K): 0.0218
solubility (mole fraction) (in n-butanol, 323.15 K): 0.0262
solubility (mole fraction) (in n-pentanol, 273.15 K): 0.0027
solubility (mole fraction) (in n-pentanol, 279.15 K): 0.00363
solubility (mole fraction) (in n-pentanol, 283.95 K): 0.00456
solubility (mole fraction) (in n-pentanol, 289.15 K): 0.00568
solubility (mole fraction) (in n-pentanol, 293.35 K): 0.00705
solubility (mole fraction) (in n-pentanol, 298.95 K): 0.00875
solubility (mole fraction) (in n-pentanol, 303.25 K): 0.0108
solubility (mole fraction) (in n-pentanol, 308.95 K): 0.0134
solubility (mole fraction) (in n-pentanol, 313.15 K): 0.0158
solubility (mole fraction) (in n-pentanol, 319.15 K): 0.0195
solubility (mole fraction) (in n-pentanol, 323.85 K): 0.023
solubility (mole fraction) (in n-propanol, 273.15 K): 0.00418
solubility (mole fraction) (in n-propanol, 279.15 K): 0.0055
solubility (mole fraction) (in n-propanol, 283.75 K): 0.00674
solubility (mole fraction) (in n-propanol, 289.15 K): 0.00847
solubility (mole fraction) (in n-propanol, 298.95 K): 0.0126
solubility (mole fraction) (in n-propanol, 303.25 K): 0.0148
solubility (mole fraction) (in n-propanol, 308.65 K): 0.0182
solubility (mole fraction) (in n-propanol, 313.15 K): 0.0215
solubility (mole fraction) (in n-propanol, 318.15 K): 0.0257
solubility (mole fraction) (in n-propanol, 323.15 K): 0.03
